Measured values as given in patent US20170136031A1, “PLATINUM COMPLEXES AS ANTICANCER AGENTS” (KING FAHD UNIVERSITY OF PETROLEUM AND MINERALS, priority 2014, published 2017).

What was measured:
Format in all cases: cell-based
[1] = test system: MCF7 (human breast cancer) cell line; experiment: In vitro cytotoxicity against MCF7 cell line; conditions: from curves of complex concentration vs percentage viability
[2] = test system: HCT15 (human colon adenocarcinoma) cell line; experiment: In vitro cytotoxicity against HCT15 cell line; conditions: from curves of complex concentration vs percentage viability
[3] = test system: HeLa (human cervical cancer) cell line; experiment: In vitro cytotoxicity against HeLa cell line; conditions: read-out: IC50 values against HeLa cell line (unit inferred)
[4] = test system: A549 (human lung carcinoma) cell line; experiment: In vitro cytotoxicity against A549 cell line; conditions: from curves of complex concentration vs percentage viability

SMILES: N.N.[Cl][Pt][Cl] [Cisplatin, cisplatin]
- IC50 [1]: 22.4 µM
- IC50 [2]: 29.5 µM
- IC50 [3]: 19.4 µM
- IC50 [4]: 41.6 µM
